One test has as its system THP-1 dual cells. As to the kind of experiment: Type 1 IFN activation assay (THP-1 dual cells, QUANTI-Luc). The format is cell-based. Particulars: PMA-treated THP-1 dual cells, compound in digitonin PB buffer 30 min, then 24 h, expression level of IFN. How it is done: Plated THP-1 dual cells (Invivogen) as 100000 cells/well in a 96 well-plate, and then phorbol 12-myristate 13-acetate (PMA) was added and the final concentration of PMA was 30 ng/mL. After 24 h incubation, cells were washed with fresh medium for twice, and 3-folds dilution compounds were added to appropriate wells. The compounds were diluted by PB buffer (50 mM HEPES, 100 mM KCl, 3 mM MgCl2, 0.1 mM DTT, 85 mM sucrose, 1 mM ATP, 0.1 mM GTP, 0.2% o bovine serum albumin and 5 μg/ml digitonin) and the top dose was 10 μM, minimum dose was 0.0015 μM. The cells were incubated for 30 min, and then washed with fresh medium for twice again. Add fresh medium, and the cells were incubated for additional 24 h. After incubation, 10 ul supermant and 50 μL QUANTI-Luc (Invivogen) was add to a 96 well-plate, fluorescence was read with TECAN. The express level of IFN was proportional to the fluorescence intensity. Drew the curve with Graphpad Prism and analyse EC50 of the compounds.

The next test concerns the target STING (Homo sapiens, UniProt Q86WV6). Kind of test: STING IFNβ secretion assay (THP-1 cells, AlphaLISA IFN-β kit). Particulars: 5 h incubation, secretion of IFN-β. The format is cell-based. As to the method: Plated 40 uL THP-1 cells (ATCC) as 16000 cells/well in a 96 well-plate (Corning, 3596). 3-folds dilution compounds were added to appropriate wells. The compounds were diluted with buffer (RPMI1640+2 mM L-glutamine+1× non-essential amino acids+1 mM sodium pyruvate+0.5% Fetal bovine serum), and the top dose of the compound was 100 μM, minimum dose was 1.23 μM. After 5 h incubation, […] supernant was added to 384-well plate (Greiner, Cat: 784075) and the secretion of IFN-β was detected with AllphaLISA IFN-β kit(PerkinElmer, Cat:AL577C). 1× buffer was prepared to dilute the receptor and donor, and then 4 μL 20 μg/mL Anti-pIFNβ AlphaLISA receptor was added to every well. After 30 mins incubation at room temperature, 4 μL 2 nM biotinylated Anti-pIFNβ antibody was added to a 384 well-plate, incubated overnight at 4° C. 10 μL 40 µg/mL Streptavidin (SA) donor which was diluted with 1×buffer was added, and then incubated at room temperature for 30 min. Fluorescence was read with TECAN. The expressed level of IFN-β was proportional to the fluorescence intensity. Drew the curve with Graphpad Prism and analysed EC50 of the compounds.

Molecules are shown by their SMILES. Where only a bound is given, the exact number is not on record here.

STING, sequence (Q86WV6 whole entry): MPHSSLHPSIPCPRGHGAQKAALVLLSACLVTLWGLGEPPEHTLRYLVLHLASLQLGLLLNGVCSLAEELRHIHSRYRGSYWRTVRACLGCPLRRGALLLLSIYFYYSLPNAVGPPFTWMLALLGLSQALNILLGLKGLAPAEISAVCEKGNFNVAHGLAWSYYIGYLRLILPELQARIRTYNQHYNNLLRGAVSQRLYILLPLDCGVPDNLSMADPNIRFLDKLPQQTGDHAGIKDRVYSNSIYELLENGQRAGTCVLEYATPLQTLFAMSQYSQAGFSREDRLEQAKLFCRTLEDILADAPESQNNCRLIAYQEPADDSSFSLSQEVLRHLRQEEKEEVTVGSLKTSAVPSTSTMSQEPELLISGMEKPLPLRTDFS

On to `Nc1ncnc2c1ncn2[C@@H]1O[C@@H]2COP(=O)(S)O[C@@H]3[C@H](O)[C@@H](COP(=O)(S)O[C@H]2[C@H]1O)O[C@H]3n1c(=O)sc2c(N)ncnc21` (some centres unmarked) [Compound 2-p1], for which, in the test with THP-1 dual cells, a half-maximal response (EC50) required 45.8 µM. For `Nc1ncnc2c1ncn2C1OC2COP(=O)(S)OC3C(O)C(COP(=O)(S)OC2C1F)OC3n1c(=O)sc2c(N)ncnc21` (centres unmarked) [Compound 4-p3], the results for the EC50 in the test with THP-1 dual cells and at STING were 0.417 µM and 94.4 µM, respectively. As for `Nc1nc2c(ncn2[C@@H]2O[C@@H]3COP(=O)(S)O[C@H]4[C@@H](O)[C@H](n5ccc6nccn6c5=O)O[C@@H]4COP(=O)(S)O[C@@H]2[C@@H]3O)c(=O)[nH]1` (some centres unmarked) [Compound 13-p1], the EC50 (usually the concentration giving half of the maximal effect) in the test with THP-1 dual cells stood at 188 µM. In the case of `Nc1ncnc2c1ncn2C1OC2COP(=O)(S)OC3C(O)C(COP(=O)(S)OC2C1F)OC3n1c(=O)sc2c(N)ncnc21` (centres unmarked) [Compound 4-p2], the EC50 in the test with THP-1 dual cells (Homo sapiens, THP1-Dual) turned out to be 0.625 µM; at STING it was 36.2 µM. For `Nc1ncnc2c1ncn2[C@@H]1O[C@@H]2COP(=O)(S)O[C@@H]3C(O)[C@@H](COP(O)(=S)O[C@H]2[C@H]1O)O[C@H]3n1cnc2c(N)ncnc21` (some centres unmarked) [Ref. 1, MLRR-CDA, reference compound], the EC50 in the test with THP-1 dual cells is 2.94 µM. On the same count and under the same terms, to `CO[C@H]1[C@H]2OP(=O)(S)OC[C@H]3O[C@@H](n4cnc5c(N)ncnc54)[C@H](F)[C@@H]3OP(=O)(S)OC[C@H]1O[C@H]2n1c(=O)sc2c(N)ncnc21` (some centres unmarked) [Compound 6-p1] belongs 2.27 µM; to `Nc1ncnc2c1ncn2[C@@H]1O[C@@H]2COP(=O)(S)O[C@@H]3[C@H](O)[C@@H](COP(=O)(S)O[C@H]2[C@H]1O)O[C@H]3n1c(=O)[nH]c2c(N)ncnc21` (some centres unmarked) [Compound 1-p1], over 10 µM. In the test on THP-1 dual cells, `Nc1nc2c(ncn2[C@@H]2O[C@@H]3COP(=O)(S)O[C@H]4[C@@H](O)[C@H](n5cnc6ncccc6c5=O)O[C@@H]4COP(=O)(S)O[C@@H]2[C@@H]3O)c(=O)[nH]1` (some centres unmarked) [Compound 11-p1] returned an EC50 of 60.8 µM. As for `Nc1nc2c(ncn2[C@@H]2O[C@@H]3COP(=O)(S)O[C@H]4[C@@H](O)[C@H](n5cnc6ccccc6c5=O)O[C@@H]4COP(=O)(S)O[C@@H]2[C@@H]3O)c(=O)[nH]1` (some centres unmarked) [Compound 10-p1], the EC50 in the test on THP-1 dual cells turned out to be 70.7 µM.

These data come from US12152051B2, “Cyclic dinucleotide analogue, pharmaceutical composition thereof, and application” (SHANGHAI DE NOVO PHARMATECH CO., LTD., priority 2018, dated 2024).
